# Molecular target: T1, JNK1 (Homo sapiens, UniProt P45983)
# T1 construct: purchased Carna Biosciences
# Assay: JNK1 biochemical assays (one or more of: time resolved fluorescence, Z'-LYTE Cascade, radioactive)
# Details: tested in one or more of the JNK1 biochemical assays; read-out: Act. Level (JNK1 biochemical assay IC50 activity level)
# T1 sequence (P45983 whole entry): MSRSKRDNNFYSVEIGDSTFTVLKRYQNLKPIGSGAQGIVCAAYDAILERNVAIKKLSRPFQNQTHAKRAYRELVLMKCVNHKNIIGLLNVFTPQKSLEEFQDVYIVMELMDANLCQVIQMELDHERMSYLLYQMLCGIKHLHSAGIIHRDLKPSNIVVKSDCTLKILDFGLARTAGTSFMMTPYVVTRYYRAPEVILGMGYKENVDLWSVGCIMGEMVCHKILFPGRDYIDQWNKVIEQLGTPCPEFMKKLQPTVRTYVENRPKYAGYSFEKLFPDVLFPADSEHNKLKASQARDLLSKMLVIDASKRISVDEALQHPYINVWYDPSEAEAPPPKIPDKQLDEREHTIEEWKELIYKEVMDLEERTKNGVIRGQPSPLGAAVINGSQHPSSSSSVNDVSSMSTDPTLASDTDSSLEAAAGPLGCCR
row,Structure (SMILES),IC50 [nM]
1,"CNC(=O)[C@H]1CC[C@@H](Nc2nc(NC3CCCC3)ncc2C(N)=O)CC1 [Example A-130, 2-(cyclopentylamino)-4-((1s,4s)-4-(methylcarbamoyl)cyclohexylamino)pyrimidine-5-carboxamide]",1000 to 10000
2,"NC[C@H]1CC[C@@H](Nc2nc(NC3CCCC3)ncc2C(N)=O)CC1 [Example A-131, 4-((1s,4s)-4-(aminomethyl)cyclohexylamino)-2-(cyclopentylamino)pyrimidine-5-carboxamide]",< 200
3,"NC(=O)c1cnc(NC2CCC2)nc1N[C@H]1CC[C@@H](C(=O)NC2CC2)CC1 [Example A-132, 2-(cyclobutylamino)-4-((1s,4s)-4-(cyclopropylcarbamoyl)cyclohexylamino)pyrimidine-5-carboxamide]",1000 to 10000
4,"NC(=O)c1cnc(NC2CCC2)nc1N[C@H]1CC[C@@H](C(=O)N2CCCCC2)CC1 [Example A-133, 2-(cyclobutylamino)-4-((1s,4s)-4-(piperidine-1-carbonyl)cyclohexylamino)pyrimidine-5-carboxamide]",800 to 1000
5,"CN(C)C(=O)[C@H]1CC[C@@H](Nc2nc(NC3CCC3)ncc2C(N)=O)CC1 [Example A-134, 2-(cyclobutylamino)-4-((1s,4s)-4-(dimethylcarbamoyl)cyclohexylamino)pyrimidine-5-carboxamide]",1000 to 10000
6,"CCO[C@H]1CC[C@@H](Nc2nc(NC3CCC3)ncc2C(N)=O)CC1 [Example A-135, 2-(cyclobutylamino)-4-((1s,4s)-4-ethoxycyclohexylamino)pyrimidine-5-carboxamide]",200 to 800
7,"NC(=O)c1cnc(NC2CC2)nc1N[C@H]1CC[C@@H](CO)CC1 [Example A-136, 2-(cyclopropylamino)-4-((1s,4s)-4-(hydroxymethyl)cyclohexylamino)pyrimidine-5-carboxamide]",200 to 800
8,"CCNC(=O)[C@H]1CC[C@@H](Nc2nc(NC3CC3)ncc2C(N)=O)CC1 [Example A-137, 2-(cyclopropylamino)-4-((1s,4s)-4-(ethylcarbamoyl)cyclohexylamino)pyrimidine-5-carboxamide]",1000 to 10000
9,"CC(C)CC(=O)N[C@H]1CC[C@@H](Nc2nc(NC3CC3)ncc2C(N)=O)CC1 [Example A-138, 2-(cyclopropylamino)-4-((1s,4s)-4-(3-methylbutanamido)cyclohexylamino)pyrimidine-5-carboxamide]",800 to 1000
10,"CC(C)Nc1ncc(C(N)=O)c(N[C@H]2CC[C@@H](CO)CC2)n1 [Example A-139, 4-((1s,4s)-4-(hydroxymethyl)cyclohexylamino)-2-(isopropylamino)pyrimidine-5-carboxamide]",200 to 800
11,"CC(C)Nc1ncc(C(N)=O)c(N[C@H]2CC[C@@H](C(C)(C)O)CC2)n1 [Example A-140, 4-((1s,4s)-4-(2-hydroxypropan-2-yl)cyclohexylamino)-2-(isopropylamino)pyrimidine-5-carboxamide]",200 to 800
12,"CCNC(=O)[C@H]1CC[C@@H](Nc2nc(NC(C)C)ncc2C(N)=O)CC1 [Example A-141, 4-((1s,4s)-4-(ethylcarbamoyl)cyclohexylamino)-2-(isopropylamino)pyrimidine-5-carboxamide]",1000 to 10000
13,"CC(C)Nc1ncc(C(N)=O)c(N[C@H]2CC[C@@H](NC(=O)C(C)C)CC2)n1 [Example A-142, 4-((1s,4s)-4-isobutyramidocyclohexylamino)-2-(isopropylamino)pyrimidine-5-carboxamide]",200 to 800
14,"CC(C)Nc1ncc(C(N)=O)c(N[C@H]2CC[C@@H](C(=O)N3CCCC3)CC2)n1 [Example A-143, 2-(isopropylamino)-4-((1s,4s)-4-(pyrrolidine-1-carbonyl)cyclohexylamino)pyrimidine-5-carboxamide]",800 to 1000
15,"NC(=O)c1cnc(N[C@H]2CC[C@H](O)CC2)nc1NC1CCCCC1 [Example A-144, 4-(cyclohexylamino)-2-((1r,4r)-4-hydroxycyclohexylamino)pyrimidine-5-carboxamide]",< 200
16,"NC(=O)c1cnc(NC2CCCCC2)nc1N[C@H]1CC[C@@H](C(N)=O)CC1 [Example A-146, 4-((1s,4s)-4-carbamoylcyclohexylamino)-2-(cyclohexylamino)pyrimidine-5-carboxamide]",< 200
17,"NC(=O)c1cnc(NC2CCCCC2)nc1N[C@H]1CC[C@@H](O)CC1 [Example A-147, 2-(cyclohexylamino)-4-((1s,4s)-4-hydroxycyclohexylamino)pyrimidine-5-carboxamide]",< 200
18,"NC(=O)c1cnc(N[C@H]2CC[C@H](O)CC2)nc1NC1CCCC1 [Example A-148, 4-(cyclopentylamino)-2-((1r,4r)-4-hydroxycyclohexylamino)pyrimidine-5-carboxamide]",< 200
19,"NC(=O)c1cnc(NC2CCCCC2)nc1NC1CCCC1 [Example A-149, 2-(cyclohexylamino)-4-(cyclopentylamino)pyrimidine-5-carboxamide]",< 200

row,Structure (SMILES),IC50 [nM]
1,"CC1(Nc2ncc(C(N)=O)c(N[C@@H]3CCC[C@H](O)C3)n2)CCOCC1 [Example A-151, 4-((1R,3S)-3-hydroxycyclohexylamino)-2-(4-methyltetrahydro-2H-pyran-4-ylamino)pyrimidine-5-carboxamide]",< 200
2,"NC(=O)c1cnc(N[C@H]2CC[C@H](N3CCCC3)CC2)nc1N[C@@H]1CCC[C@H](O)C1 [Example A-153, 4-((1R,3S)-3-hydroxycyclohexylamino)-2-((1r,4R)-4-(pyrrolidin-1-yl)cyclohexylamino)pyrimidine-5-carboxamide]",< 200
3,"NC(=O)c1cnc(N[C@H]2CC[C@H](OCC(F)(F)F)CC2)nc1N[C@@H]1CCC[C@H]1O [Example A-156, 4-((1R,2R)-2-hydroxycyclopentylamino)-2-((1r,4R)-4-(2,2,2-trifluoroethoxy)cyclohexylamino)pyrimidine-5-carboxamid]",< 200
4,"CCO[C@H]1CC[C@H](Nc2ncc(C(N)=O)c(N[C@@H]3CCC[C@](C)(O)C3)n2)CC1 [Example A-157, 2-((1r,4R)-4-ethoxycyclohexylamino)-4-((1R,3S)-3-hydroxy-3-methylcyclohexylamino)pyrimidine-5-carboxamide]",< 200
5,"CCO[C@H]1CC[C@H](Nc2ncc(C(N)=O)c(N[C@@H]3CCCC[C@H](O)C3)n2)CC1 [Example A-158, 2-((1r,4R)-4-ethoxycyclohexylamino)-4-((1R,3S)-3-hydroxycycloheptylamino)pyrimidine-5-carboxamide]",< 200
6,"NC(=O)c1cnc(NC23CCC(CC2)CC3)nc1N[C@@H]1CCC[C@H](O)C1 [Example A-159, 2-(bicyclo[2.2.2]octan-1-ylamino)-4-((1R,3S)-3-hydroxycyclohexylamino)pyrimidine-5-carboxamide]",< 200
7,"NC(=O)c1cnc(N[C@H]2CC[C@H](OCC(F)(F)F)CC2)nc1N[C@@H]1CCCC[C@H](O)C1 [Example A-160, 4-((1R,3S)-3-hydroxycycloheptylamino)-2-((1r,4R)-4-(2,2,2-trifluoroethoxy)cyclohexylamino)pyrimidine-5-carboxamid]",< 200
8,"CC[C@]1(O)CCC[C@@H](Nc2nc(N[C@H]3CC[C@H](OC)CC3)ncc2C(N)=O)C1 [Example A-161, 4-((1R,3S)-3-ethyl-3-hydroxycyclohexylamino)-2-((1r,4R)-4-methoxycyclohexylamino)pyrimidine-5-carboxamide]",< 200
9,"CO[C@@H]1CCC[C@H](Nc2ncc(C(N)=O)c(N[C@@H]3CCC[C@H](O)C3)n2)CC1 [Example A-162, 4-((1R,3S)-3-hydroxycyclohexylamino)-2-((1S,4R)-4-methoxycycloheptylamino)pyrimidine-5-carboxamide]",< 200
10,"CO[C@H]1CCC[C@@H](Nc2ncc(C(N)=O)c(N[C@@H]3CCC[C@H](O)C3)n2)CC1 [Example A-163, 4-((1R,3S)-3-hydroxycyclohexylamino)-2-((1R,4S)-4-methoxycycloheptylamino)pyrimidine-5-carboxamide]",< 200
11,"CO[C@H]1CC[C@H](Nc2ncc(C(N)=O)c(NC3CCC3)n2)CC1 [Example A-164, 4-(cyclobutylamino)-2-((1r,4r)-4-methoxycyclohexylamino)pyrimidine-5-carboxamide]",< 200
12,"NC(=O)c1cnc(N[C@H]2CC[C@H](OC(F)F)CC2)nc1N[C@@H]1CCCC[C@H](O)C1 [Example A-165, 2-((1r,4R)-4-(difluoromethoxy)cyclohexylamino)-4-((1R,3S)-3-hydroxycycloheptylamino)pyrimidine-5-carboxamide]",< 200
13,"NC(=O)c1cnc(NC2CCOCC2)nc1N[C@@H]1CCCC[C@H](O)C1 [Example A-166, 4-((1R,3S)-3-hydroxycycloheptylamino)-2-(tetrahydro-2H-pyran-4-ylamino)pyrimidine-5-carboxamide]",< 200
14,"CCO[C@H]1CC[C@H](Nc2ncc(C(N)=O)c(N[C@@H]3CCOC3)n2)CC1 [Example A-167, 2-((1r,4R)-4-ethoxycyclohexylamino)-4-((R)-tetrahydrofuran-3-ylamino)pyrimidine-5-carboxamide]",< 200
15,"C[C@]1(O)CCC[C@@H](Nc2nc(N[C@H]3CC[C@H](OCC(F)(F)F)CC3)ncc2C(N)=O)C1 [Example A-168, 4-((1R,3S)-3-hydroxy-3-methylcyclohexylamino)-2-((1r,4R)-4-(2,2,2-trifluoroethoxy)cyclohexylamino)pyrimidine-5-carboxamid]",< 200
16,"C[C@]1(O)CCC[C@@H](Nc2nc(NC3CCOCC3)ncc2C(N)=O)C1 [Example A-169, 4-((1R,3S)-3-hydroxy-3-methylcyclohexylamino)-2-(tetrahydro-2H-pyran-4-ylamino)pyrimidine-5-carboxamide]",< 200
17,"C[C@]1(O)CCC[C@@H](Nc2nc(N[C@H]3CC[C@H](OC(F)F)CC3)ncc2C(N)=O)C1 [Example A-170, 2-((1r,4R)-4-(difluoromethoxy)cyclohexylamino)-4-((1R,3S)-3-hydroxy-3-methylcyclohexylamino)pyrimidine-5-carboxamide]",< 200
18,"NC(=O)c1cnc(N[C@H]2CC[C@H](O)CC2)nc1N[C@@H]1CCCC[C@H](O)C1 [Example A-171, 4-((1R,3S)-3-hydroxycycloheptylamino)-2-((1r,4R)-4-hydroxycyclohexylamino)pyrimidine-5-carboxamide]",< 200

# — patent publication US12129237B2, “Substituted diaminocarboxamide and diaminocarbonitrile pyrimidines, compositions thereof, and methods of treatment therewith” (SIGNAL PHARMACEUTICALS, LLC, priority 2011, dated 2024)
